Eff. % data for 41 molecules are collected here from patent publication US10499641B2 (priority 2010, dated 2019).

For one experiment, the system named is Phytophthora infestans. It is filed as in vivo. The conditions noted are these: young tomato plants, sprayed, active ingredient concentration 100 ppm, inoculated 1 day after treatment, evaluation 7 days after inoculation; 100% = no infection.
The test system of another experiment is Plasmopara viticola. As to the kind of experiment: Plasmopara test (grapevine)/protective. It counts as in vivo. To be noted: young grapevine plants, sprayed, active ingredient concentration 10 ppm, evaluation 6 days after inoculation; 100% = no infection. The procedure:
Plasmopara Test (Grapevine)/Protective
• Solvent: 24.5 parts by weight of acetone • 24.5 parts by weight of dimethylacetamide • Emulsifier: 1 part by weight of alkylaryl polyglycol ether
[To produce an appropriate active ingredient formulation, 1 part by weight of active ingredient is mixed with the specified amounts of solvent and emulsifier, and the concentrate is diluted with water to the desired concentration.
To test for protective efficacy, young plants are sprayed with the active ingredient formulation at the stated application rate. After the spray coating has dried on, the plants are inoculated with an aqueous spore suspension of Plasmopara viticola and then remain in an incubation cabin at approx. 20° C. and 100% relative air humidity for 1 day. Subsequently, the plants are placed in a greenhouse at approx. 21° C. and approx. 90% air humidity for 4 days. The plants are then moistened and placed in an incubation cabin for 1 day.
Evaluation follows 6 days after the inoculation. 0% means an efficacy which corresponds to that of the control, whereas an efficacy of 100% means that no infection is observed.
In this test, the following inventive compounds show, at an active ingredient concentration of 10 ppm, an efficacy of 70% or more: […]

Take `CSCOc1ccccc1C1CC(c2csc(C3CCN(C(=O)Cn4nc(C(F)(F)F)cc4C)CC3)n2)=NO1` (stereo not shown) [Example I-120]: the results for the Eff. % in the experiment on Phytophthora infestans and with Plasmopara viticola were 89% and 95%, respectively.

Regarding `CON=Cc1cccc(C2CC(c3csc(C4CCN(C(=O)Cn5nc(C(F)(F)F)cc5C)CC4)n3)=NO2)c1` (mixture of isomers) [Example I-15], the Eff. % with Phytophthora infestans came out at 100%; in the experiment with Plasmopara viticola, 81%.

Consider `O=C(Oc1ccccc1C1CC(c2csc(C3CCN(C(=O)Cn4nc(C(F)F)cc4C(F)F)CC3)n2)=NO1)c1ccc(F)cc1` (stereo not shown) [Example I-132], for which the Eff. % is listed as 100% in the experiment on Phytophthora infestans and 96% in the experiment with Plasmopara viticola.

Take `Cc1ccc(Cl)cc1NC(=O)N1CCC(c2nc(C3=NOC(c4c(Cl)cccc4OS(C)(=O)=O)C3)cs2)CC1` (stereo not shown) [Example I-54]: the Eff. % came out at 94% in the experiment on Phytophthora infestans and 100% in the experiment with Plasmopara viticola.

With `CCON=C(C)c1cccc(C2CC(c3csc(C4CCN(C(=O)Cn5nc(C(F)F)cc5C(F)F)CC4)n3)=NO2)c1` (mixture of isomers) [Example I-5], the values for the Eff. % in the experiment with Phytophthora infestans and in the experiment on Plasmopara viticola were 100% and 87%, respectively.

Take `N#CCCn1cccc1C1CC(c2csc(C3CCN(C(=O)Cn4nc(C(F)F)cc4C(F)F)CC3)n2)=NO1` (stereo not shown) [Example I-87]: the Eff. % with Phytophthora infestans was found to be 80%; in the experiment with Plasmopara viticola, 95%.

Turning to `C#CCOCc1ccccc1C1CC(c2csc(C3CCN(C(=O)Cn4nc(C(F)F)cc4C(F)F)CC3)n2)=NO1` (stereo not shown) [Example I-53], the Eff. % in the experiment with Phytophthora infestans turned out to be 94%; in the experiment with Plasmopara viticola it was 96%.

Consider `C[Si](C)(C)C#Cc1ccccc1C1CC(c2csc(C3CCN(C(=O)Cn4nc(C(F)F)cc4C(F)F)CC3)n2)=NO1` (stereo not shown) [Example I-133], for which the Eff. % in the experiment on Phytophthora infestans is on record as 100%; in the experiment on Plasmopara viticola, 85%.

For the molecule `Cc1cc(C(F)(F)F)nn1CC(=O)N1CCC(c2nc(C3=NOC(c4cccc(F)c4OS(=O)(=O)C4CC4)C3)cs2)CC1` (stereo not shown) [Example I-114], the Eff. % with Phytophthora infestans worked out at 94%; in the experiment with Plasmopara viticola, 100%.

Turning to `CS(=O)(=O)Oc1c(F)cccc1C1CC(c2csc(C3CCN(C(=O)Cn4nc(C(F)F)cc4C(F)F)CC3)n2)=NO1` (stereo not shown) [Example I-85], the Eff. % is 75% with Phytophthora infestans and 100% in the experiment with Plasmopara viticola.

For `O=C(Cn1nc(C(F)F)cc1C(F)F)N1CCC(c2nc(C3=NOC(c4cccc(C=NO)c4)C3)cs2)CC1` (mixture of isomers) [Example I-22], the Eff. % in the experiment on Phytophthora infestans and in the experiment on Plasmopara viticola was 100% each time.

`O=C(Cn1nc(C(F)F)cc1C(F)F)N1CCC(c2nc(C3=NOC(c4ccccc4C=NO)C3)cs2)CC1` (mixture of isomers) [Example I-35]: the Eff. % in the experiment with Phytophthora infestans stood at 95%; in the experiment on Plasmopara viticola, 100%.

With `COC(=O)COc1ccc(C2CC(c3csc(C4CCN(C(=O)Cn5nc(C(F)F)cc5C(F)F)CC4)n3)=NO2)cc1` (stereo not shown) [Example I-128], the Eff. % with Phytophthora infestans came out at 90%; in the experiment on Plasmopara viticola it was 93%.

With `CCS(=O)(=O)Oc1cccc(C2CC(c3csc(C4CCN(C(=O)Cn5nc(C(F)F)cc5C(F)F)CC4)n3)=NO2)c1` (stereo not shown) [Example I-77], the Eff. % in the experiment on Phytophthora infestans is given as 98%; in the experiment with Plasmopara viticola, 93%.

For `CON=Cc1ccccc1C1CC(c2csc(C3CCN(C(=O)Cn4nc(C(F)(F)F)cc4C)CC3)n2)=NO1` (stereo not shown) [Example I-34], the Eff. % in the experiment on Phytophthora infestans is 100%; with Plasmopara viticola, 87%.

`O=C(Cn1nc(C(F)F)cc1C(F)F)N1CCC(c2nc(C3=NOC(c4ccccc4OS(=O)(=O)C(F)(F)F)C3)cs2)CC1` (stereo not shown) [Example I-115]: the values for the Eff. % with Phytophthora infestans and in the experiment with Plasmopara viticola were 88% and 100%, respectively.

Take `O=C(Oc1ccccc1C1CC(c2csc(C3CCN(C(=O)Cn4nc(C(F)F)cc4C(F)F)CC3)n2)=NO1)c1ccccc1F` (stereo not shown) [Example I-130]: the Eff. % in the experiment on Phytophthora infestans and in the experiment on Plasmopara viticola was 100% each time.

On to `CON=C(C)c1cccc(C2CC(c3csc(C4CCN(C(=O)Nc5cc(Cl)ccc5C)CC4)n3)=NO2)c1` (mixture of isomers) [Example I-23], for which the Eff. % in the experiment on Phytophthora infestans was found to be 100%; in the experiment with Plasmopara viticola, 98%.

As for `CC(=NO)c1cccc(C2CC(c3csc(C4CCN(C(=O)Cn5nc(C(F)(F)F)cc5C)CC4)n3)=NO2)c1` (stereo not shown) [Example I-7], the Eff. % in the experiment with Phytophthora infestans and in the experiment with Plasmopara viticola was 100% in each case.

In the case of `O=C(Oc1ccccc1C1CC(c2csc(C3CCN(C(=O)Cn4nc(C(F)F)cc4C(F)F)CC3)n2)=NO1)c1cccc(F)c1` (stereo not shown) [Example I-129], the Eff. % in the experiment on Phytophthora infestans and with Plasmopara viticola was 98% throughout.

With `CS(=O)(=O)Oc1cccc(Cl)c1C1CC(c2csc(C3CCN(C(=O)Cn4nc(C(F)F)cc4C(F)F)CC3)n2)=NO1` (stereo not shown) [Example I-102], the Eff. % in the experiment with Phytophthora infestans came to 75%; in the experiment on Plasmopara viticola it was 100%.

For `CCON=Cc1ccccc1C1CC(c2csc(C3CCN(C(=O)Cn4nc(C(F)(F)F)cc4C)CC3)n2)=NO1` (stereo not shown) [Example I-29], the figures for the Eff. % with Phytophthora infestans and in the experiment with Plasmopara viticola were 100% and 90%, respectively.

For `CCS(=O)(=O)Oc1ccccc1C1CC(c2csc(C3CCN(C(=O)Cn4nc(C(F)(F)F)cc4C)CC3)n2)=NO1` (stereo not shown) [Example I-119], the Eff. % is recorded as 89% in the experiment on Phytophthora infestans and 100% in the experiment with Plasmopara viticola.

Regarding `O=CNc1ccccc1C1CC(c2csc(C3CCN(C(=O)Nc4cc(C(F)F)ccc4C(F)F)CC3)n2)=NO1` (stereo not shown) [Example I-122], the Eff. % came out at 97% in the experiment on Phytophthora infestans and 89% with Plasmopara viticola.

For the molecule `O=C(Oc1ccccc1C1CC(c2csc(C3CCN(C(=O)Cn4nc(C(F)F)cc4C(F)F)CC3)n2)=NO1)c1ccccc1` (stereo not shown) [Example I-131], the Eff. % with Phytophthora infestans stood at 100%; in the experiment with Plasmopara viticola, 94%.

Regarding `Cc1cc(C(F)F)nn1CC(=O)N1CCC(c2nc(C3=NOC(c4ccccc4OCC#N)C3)cs2)CC1` (stereo not shown) [Example I-76], the Eff. % with Phytophthora infestans is recorded as 100%; in the experiment on Plasmopara viticola it was 93%.

Take `COCCS(=O)(=O)Cc1ccccc1C1CC(c2csc(C3CCN(C(=O)Cn4nc(C(F)F)cc4C(F)F)CC3)n2)=NO1` (stereo not shown) [Example I-57]: the Eff. % in the experiment with Phytophthora infestans came out at 94%; in the experiment on Plasmopara viticola, 90%.

With `O=C(Cn1nc(C(F)F)cc1C(F)F)N1CCC(c2nc(C3=NOC(c4ccccc4OS(=O)(=O)C4CC4)C3)cs2)CC1` (stereo not shown) [Example I-64], the Eff. % in the experiment with Phytophthora infestans and in the experiment with Plasmopara viticola was 100% throughout.

Turning to `CC(=O)OCc1ccccc1C1CC(c2csc(C3CCN(C(=O)Cn4nc(C(F)(F)F)cc4C)CC3)n2)=NO1` (stereo not shown) [Example I-47], the Eff. % came to 94% in the experiment on Phytophthora infestans and 90% in the experiment on Plasmopara viticola.

For `C#CCN(C=O)c1ccccc1C1CC(c2csc(C3CCN(C(=O)Cn4nc(C(F)F)cc4C(F)F)CC3)n2)=NO1` (stereo not shown) [Example I-117], the results for the Eff. % in the experiment with Phytophthora infestans and in the experiment on Plasmopara viticola were 79% and 96%, respectively.

Consider `Cc1cc(C(F)(F)F)nn1CC(=O)N1CCC(c2nc(C3=NOC(c4ccccc4OCC#N)C3)cs2)CC1` (stereo not shown) [Example I-140], for which the Eff. % amounted to 84% in the experiment on Phytophthora infestans and 100% in the experiment on Plasmopara viticola.

As for `CC(=NO)c1cccc(C2CC(c3csc(C4CCN(C(=O)Cn5nc(C(F)F)cc5C(F)F)CC4)n3)=NO2)c1` (mixture of isomers) [Example I-18], the Eff. % in the experiment on Phytophthora infestans and with Plasmopara viticola was 100% in each case.

As for `CON=Cc1cccc(C2CC(c3csc(C4CCN(C(=O)Nc5cc(Cl)ccc5C)CC4)n3)=NO2)c1` (mixture of isomers) [Example I-19], the Eff. % in the experiment with Phytophthora infestans and in the experiment with Plasmopara viticola was 100% in each case.

As to `O=CNc1ccccc1C1CC(c2csc(C3CCN(C(=O)Cn4nc(C(F)F)cc4C(F)F)CC3)n2)=NO1` (stereo not shown) [Example I-108], the Eff. % stood at 100% in the experiment with Phytophthora infestans and 93% in the experiment on Plasmopara viticola.

As to `Cc1ccc(C)c(NC(=O)N2CCC(c3nc(C4=NOC(c5ccccc5OS(C)(=O)=O)C4)cs3)CC2)c1` (stereo not shown) [Example I-74], the Eff. % in the experiment on Phytophthora infestans and in the experiment on Plasmopara viticola was 100% in each case.

With `CON=C(C)c1ccccc1C1CC(c2csc(C3CCN(C(=O)Cn4nc(C(F)(F)F)cc4C)CC3)n2)=NO1` (mixture of isomers) [Example I-31], the Eff. % worked out at 100% in the experiment with Phytophthora infestans and 97% in the experiment on Plasmopara viticola.

`CON=Cc1ccccc1C1CC(c2csc(C3CCN(C(=O)Cn4nc(C(F)F)cc4C(F)F)CC3)n2)=NO1` (stereo not shown) [Example I-26, 2-{3-[2-(1-{[3,5-Bis(difluoromethyl)-1H-pyrazol-1-yl]acetyl}piperidin-4-yl)-1,3-thiazol-4-yl]-4,5-dihydro-1,2-oxazol-5-yl}benzaldehyde O-methyloxime]: the Eff. % in the experiment with Phytophthora infestans and with Plasmopara viticola was 100% throughout.

Turning to `Cc1cc(C(F)(F)F)nn1CC(=O)N1CCC(c2nc(C3=NOC(c4cccc(C=NO)c4)C3)cs2)CC1` (mixture of isomers) [Example I-10], the Eff. % in the experiment on Phytophthora infestans is on record as 100%; in the experiment on Plasmopara viticola, 92%.

On to `C/C=C/C(=O)Oc1ccccc1C1CC(c2csc(C3CCN(C(=O)Cn4nc(C(F)F)cc4C(F)F)CC3)n2)=NO1` (stereo not shown) [Example I-82], for which the Eff. % in the experiment on Phytophthora infestans is given as 70%; in the experiment with Plasmopara viticola it was 94%.

For `C#CCOCc1ccccc1C1CC(c2csc(C3CCN(C(=O)Cn4nc(C(F)F)cc4C(F)F)CC3)n2)=NO1` (stereo not shown) [Example I-138], the Eff. % in the experiment with Phytophthora infestans turned out to be 93%; in the experiment on Plasmopara viticola, 98%.

In the case of `N#CCN(C=O)c1ccccc1C1CC(c2csc(C3CCN(C(=O)Cn4nc(C(F)F)cc4C(F)F)CC3)n2)=NO1` (stereo not shown) [Example I-121], the Eff. % is on record as 100% in the experiment with Phytophthora infestans and 98% in the experiment on Plasmopara viticola.
